Data taken from patent publication US20230240297A1, “SELECTIVE HERBICIDES BASED ON SUBSTITUTED ISOXAZOLIN CARBOXAMIDES AND CYPROSULFAMIDE” (Bayer Aktiengesellschaft, priority 2020, published 2023).

Assays:
Type in all cases: in vivo, maize
[1] = tested on: ZEAMA Sileno; experiment: Tank-mix; post-emergence, crop damage with and without safener
How it was run: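 Crops in sandy loam in the greenhouse were sprayed at the 1–3-leaf stage, 2–3 weeks after sowing, with herbicide/safener combinations or the single actives at various dosages in 300 l/ha water. Injury was scored visually 1–3 weeks after treatment as % versus untreated plants (0% none, 100% complete kill).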

[2] = tested on: ZEAMA Sileno; experiment: Treatment 1 day before (safener applied one day before herbicide, post-emergence); set-up: key to Reduction [Difference]: percentage points of visually scored % crop damage vs untreated control
How it was run: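 Crops grown in sandy loam to the 1-3 leaf stage (BBCH 11-13) in greenhouse; WP-formulated safener sprayed post-emergence one day before herbicide, at 300 l/ha with wetting agent and adjuvants. Crop damage (%) scored visually 10 and 21 DAT against untreated controls; herbicide-only plants run in parallel.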

[3] = tested on: ZEAMA Sileno; experiment: Seed treatment with safener; pre-emergence herbicide application; conditions: for Reduction [%] / Reduction [Difference]: HER 40 g a.i./ha, cyprosulfamide 0.25 g a.i./kg seed; for HER effect + SAF / HER effect: HER dose 40 g a.i./ha pre-emergence; for HER effect + SAF: cyprosulfamide seed treatment 0.25 g a.i./kg seed; for HER effect: no safener
Protocol: For the safener seed treatment, sufficient seeds of the respective crops (spring wheat, TRZAS; spring barley, HORVS; maize, ZEAMA) were weighed into screw top glass bottles approximately twice the volume of the seeds.
The specified safeners, formulated as wettable powder (WP) were weighed out so that the specified rates (g a.i./kg seed) would be obtained, dissolved in water (1 ml water per 10 g of seeds), and added to the seeds to produce a slurry.
The bottles were capped and then placed in an overhead shaker (set at medium speed for ca. 60 minutes) so that the seeds were evenly coated with the slurry. The bottles were uncapped and the seeds were either placed on paper and dried for an interval of 3-4 hours prior to sowing, or directly sown. Seeds were placed in sandy loam soil in pots of a diameter of 7-8 cm, and covered with soil.
Pre-emergence application of the specified herbicides was done subsequently, on two sets of plants: • a) seed treatment with safener, as described above • b) no safener treatment
The herbicides were formulated as WP and was sprayed onto the soil surface as an aqueous suspension at an equivalent water application rate of 300 1/ha.
After application, the test plants were kept in the greenhouse under good growth conditions. At intervals up to 4 weeks after application (=28 days after treatment; DAT), % crop damage observed on the treated plants was scored visually in comparison to control plants that had not received any safener or herbicide treatment.
Values in the table below are mean values of at least 2 replicates.

[4] = tested on: ZEAMA Sileno; experiment: Seed treatment with safener; post-emergence herbicide application; set-up: Reduction [Difference]: scale not given here; conditions: Final assessment; for Reduction [%] / Reduction [Difference]: Cyprosulfamide 0.5 g a.i./kg seed; for Reduction [Difference]: damage without safener - damage with safener; for HER effect + SAF (crop damage with safener): Cyprosulfamide seed treatment 0.5 g a.i./kg seed; for HER effect (crop damage, herbicide without safener): no safener
How it was run: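 Maize seeds slurry-coated with WP safener (g a.i./kg seed) or left untreated, sown in sandy loam and grown in greenhouse. WP herbicide sprayed post-emergence at BBCH11-13 in 300 l/ha water with wetting agent and adjuvants (e.g. Mero 1.5 l/ha, ammonium sulphate 2 kg/ha); means of at least 2 replicates.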

[5] = HER 8 g a.i./ha, cyprosulfamide 100 g a.i./ha 1 day before

## C=CC1(C(=O)NC2COC(C(=O)OC)C2)CC(c2cc(F)cc(F)c2)=NO1 (mixture of isomers) [Example 1.68]
[1]; HER 2 g a.i./ha, cyprosulfamide 50 g a.i./ha
  Reduction [%]: 67%
[1]; HER 2 g a.i./ha, cyprosulfamide 50 g a.i./ha, damage without safener - damage with safener
  Reduction [Difference]: 40
[1]; HER dose 2 g a.i./ha + cyprosulfamide 50 g a.i./ha tank-mix, Final assessment
  HER effect + SAF: 20%
[1]; HER dose 2 g a.i./ha, no safener, Final assessment, 0% = no injury, 100% = complete kill
  HER effect: 60%
[2]; [5]
  Reduction [%]: 69%
  Reduction [Difference]: 68
[2]; HER dose 8 g a.i./ha, cyprosulfamide 100 g a.i./ha applied 1 day before, Final assessment
  HER effect + SAF: 30%
[2]; HER dose 8 g a.i./ha, no safener, Final assessment
  HER effect: 98%
[3]; 14 DAT
  Reduction [%]: 41%
  Reduction [Difference]: 38
  HER effect + SAF: 55%
  HER effect: 93%
[3]; 26 DAT
  Reduction [%]: 58%
  Reduction [Difference]: 55
  HER effect + SAF: 40%
  HER effect: 95%
[4]; HER dose 2 g a.i./ha
  Reduction [%]: 83%
  Reduction [Difference]: 50
  HER effect + SAF (crop damage with safener): 10%
  HER effect (crop damage, herbicide without safener): 60%
[4]; HER dose 8 g a.i./ha
  Reduction [%]: 74%
  Reduction [Difference]: 73
  HER effect + SAF (crop damage with safener): 25%
  HER effect (crop damage, herbicide without safener): 98%
[4]; HER dose 32 g a.i./ha
  Reduction [%]: 69%
  Reduction [Difference]: 68
  HER effect + SAF (crop damage with safener): 30%
  HER effect (crop damage, herbicide without safener): 98%
